According to PubChem BioAssay (NCI):
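All cell lines were grown in 96-well plates and treated with compound for 48 hours. Here, GI50 denotes the concentration required for 50% inhibition of growth. TGI marks complete inhibition of growth.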

Experiments:
Test in all cases: NCI anticancer screen, dose series, 48 h
LOX IMVI melanoma = test system: LOX IMVI melanoma
NCI-H460 lung = test system: NCI-H460 lung
HT29 colon = test system: HT29 colon
NCI/ADR-RES ovarian = test system: NCI/ADR-RES ovarian
UACC-257 melanoma = test system: UACC-257 melanoma
SF-539 CNS = test system: SF-539 CNS
HOP-92 NSCLC = test system: HOP-92 NSCLC
SK-MEL-28 melanoma = test system: SK-MEL-28 melanoma
NCI-H23 lung = test system: NCI-H23 lung
HOP-62 NSCLC = test system: HOP-62 NSCLC
A498 renal = test system: A498 renal
HS 578T breast = test system: HS 578T breast
UACC-62 melanoma = test system: UACC-62 melanoma
ACHN renal = test system: ACHN renal
PC-3 prostate = test system: PC-3 prostate
SW-620 colon = test system: SW-620 colon
CAKI-1 renal = test system: CAKI-1 renal
UO-31 renal = test system: UO-31 renal
IGROV1 ovarian = test system: IGROV1 ovarian
U251 CNS = test system: U251 CNS
A549 NSCLC = test system: A549 NSCLC
786-0 renal = test system: 786-0 renal
SK-MEL-5 melanoma = test system: SK-MEL-5 melanoma
SR leukemia = test system: SR leukemia
MOLT-4 leukemia = test system: MOLT-4 leukemia
MDA-MB-231 breast = test system: MDA-MB-231 breast
KM12 colon = test system: KM12 colon
HCC-2998 colon = test system: HCC-2998 colon
OVCAR-3 ovarian = test system: OVCAR-3 ovarian
HL-60(TB) leukemia = test system: HL-60(TB) leukemia
M14 melanoma = test system: M14 melanoma
HCT-15 colon = test system: HCT-15 colon
MDA-MB-435 = test system: MDA-MB-435
TK-10 renal = test system: TK-10 renal
DU-145 prostate = test system: DU-145 prostate
K-562 leukemia = test system: K-562 leukemia
EKVX NSCLC = test system: EKVX NSCLC
MALME-3M melanoma = test system: MALME-3M melanoma
SNB-19 CNS = test system: SNB-19 CNS
SF-295 CNS = test system: SF-295 CNS
OVCAR-8 ovarian = test system: OVCAR-8 ovarian
OVCAR-5 ovarian = test system: OVCAR-5 ovarian
OVCAR-4 ovarian = test system: OVCAR-4 ovarian
HCT-116 colon = test system: HCT-116 colon
SN12C renal = test system: SN12C renal
RPMI-8226 leukemia = test system: RPMI-8226 leukemia
CCRF-CEM leukemia = test system: CCRF-CEM leukemia
SK-OV-3 ovarian = test system: SK-OV-3 ovarian
T-47D breast = test system: T-47D breast
MCF7 breast = test system: MCF7 breast
RXF 393 renal = test system: RXF 393 renal
NCI-H522 lung = test system: NCI-H522 lung
SNB-75 CNS = test system: SNB-75 CNS
SF-268 CNS = test system: SF-268 CNS
COLO 205 colon = test system: COLO 205 colon
BT-549 breast = test system: BT-549 breast
NCI-H226 lung = test system: NCI-H226 lung

`CC(N)(Cc1c[nH]c2cccc(F)c12)C(=O)O` (stereo not given) showed a GI50 (LOX IMVI melanoma) greater than 1000 µM, a TGI (LOX IMVI melanoma) greater than 1000 µM and a GI50 (NCI-H460 lung) greater than 1000 µM. For the same molecule, the TGI (NCI-H460 lung) was greater than 1000 µM, the GI50 (HT29 colon) was greater than 1000 µM and the TGI (HT29 colon) was greater than 1000 µM. It also gave a GI50 (NCI/ADR-RES ovarian) greater than 1000 µM, a TGI (NCI/ADR-RES ovarian) greater than 1000 µM and a GI50 (UACC-257 melanoma) greater than 1000 µM. The TGI (UACC-257 melanoma) was greater than 1000 µM, the GI50 (SF-539 CNS) was greater than 1000 µM and the TGI (SF-539 CNS) was greater than 1000 µM. The TGI (HOP-92 NSCLC) was greater than 1000 µM, the GI50 (SK-MEL-28 melanoma) was greater than 1000 µM and the TGI (SK-MEL-28 melanoma) was greater than 1000 µM. For the same molecule, the GI50 (NCI-H23 lung) was greater than 1000 µM, the TGI (NCI-H23 lung) was greater than 1000 µM and the GI50 (HOP-62 NSCLC) was 645 µM. The TGI (HOP-62 NSCLC) was greater than 1000 µM, the GI50 (A498 renal) was greater than 1000 µM and the TGI (A498 renal) was greater than 1000 µM. The GI50 (HS 578T breast) was 786 µM, the TGI (HS 578T breast) was greater than 1000 µM and the GI50 (UACC-62 melanoma) was greater than 1000 µM. The TGI (UACC-62 melanoma) was greater than 1000 µM, the GI50 (ACHN renal) was greater than 1000 µM and the TGI (ACHN renal) was greater than 1000 µM. It also gave a GI50 (PC-3 prostate) greater than 1000 µM, a TGI (PC-3 prostate) greater than 1000 µM and a GI50 (SW-620 colon) greater than 1000 µM. It also gave a TGI (SW-620 colon) greater than 1000 µM, a GI50 (CAKI-1 renal) greater than 1000 µM and a TGI (CAKI-1 renal) greater than 1000 µM. The GI50 (UO-31 renal) was 138 µM, the TGI (UO-31 renal) was greater than 1000 µM and the GI50 (IGROV1 ovarian) was 364 µM. It also gave a TGI (IGROV1 ovarian) greater than 1000 µM, a GI50 (U251 CNS) greater than 1000 µM and a TGI (U251 CNS) greater than 1000 µM. For the same molecule, the GI50 (A549 NSCLC) was greater than 1000 µM, the TGI (A549 NSCLC) was greater than 1000 µM and the GI50 (786-0 renal) was greater than 1000 µM. The TGI (786-0 renal) was greater than 1000 µM, the GI50 (SK-MEL-5 melanoma) was greater than 1000 µM and the TGI (SK-MEL-5 melanoma) was greater than 1000 µM. For the same molecule, the GI50 (SR leukemia) was greater than 1000 µM, the TGI (SR leukemia) was greater than 1000 µM and the GI50 (MOLT-4 leukemia) was greater than 1000 µM. For the same molecule, the TGI (MOLT-4 leukemia) was greater than 1000 µM, the GI50 (MDA-MB-231 breast) was greater than 1000 µM and the TGI (MDA-MB-231 breast) was greater than 1000 µM. It also gave a GI50 (KM12 colon) greater than 1000 µM, a TGI (KM12 colon) greater than 1000 µM and a GI50 (HCC-2998 colon) greater than 1000 µM. It also gave a TGI (HCC-2998 colon) greater than 1000 µM, a GI50 (OVCAR-3 ovarian) greater than 1000 µM and a TGI (OVCAR-3 ovarian) greater than 1000 µM. The GI50 (HL-60(TB) leukemia) was greater than 1000 µM, the TGI (HL-60(TB) leukemia) was greater than 1000 µM and the GI50 (M14 melanoma) was greater than 1000 µM. The TGI (M14 melanoma) was greater than 1000 µM, the GI50 (HCT-15 colon) was greater than 1000 µM and the TGI (HCT-15 colon) was greater than 1000 µM. For the same molecule, the GI50 (MDA-MB-435) was greater than 1000 µM, the TGI (MDA-MB-435) was greater than 1000 µM and the GI50 (TK-10 renal) was greater than 1000 µM. For the same molecule, the TGI (TK-10 renal) was greater than 1000 µM, the GI50 (DU-145 prostate) was greater than 1000 µM and the TGI (DU-145 prostate) was greater than 1000 µM. It also gave a GI50 (K-562 leukemia) greater than 1000 µM, a TGI (K-562 leukemia) greater than 1000 µM and a GI50 (EKVX NSCLC) greater than 1000 µM. The TGI (EKVX NSCLC) was greater than 1000 µM, the GI50 (MALME-3M melanoma) was greater than 1000 µM and the TGI (MALME-3M melanoma) was greater than 1000 µM. The GI50 (SNB-19 CNS) was greater than 1000 µM, the TGI (SNB-19 CNS) was greater than 1000 µM and the GI50 (SF-295 CNS) was greater than 1000 µM. For the same molecule, the TGI (SF-295 CNS) was greater than 1000 µM, the GI50 (OVCAR-8 ovarian) was greater than 1000 µM and the TGI (OVCAR-8 ovarian) was greater than 1000 µM. It also gave a GI50 (OVCAR-5 ovarian) greater than 1000 µM, a TGI (OVCAR-5 ovarian) greater than 1000 µM and a GI50 (OVCAR-4 ovarian) greater than 1000 µM. The TGI (OVCAR-4 ovarian) was greater than 1000 µM, the GI50 (HCT-116 colon) was greater than 1000 µM and the TGI (HCT-116 colon) was greater than 1000 µM. The GI50 (SN12C renal) was greater than 1000 µM, the TGI (SN12C renal) was greater than 1000 µM and the GI50 (RPMI-8226 leukemia) was greater than 1000 µM. It also gave a TGI (RPMI-8226 leukemia) greater than 1000 µM, a GI50 (CCRF-CEM leukemia) greater than 1000 µM and a TGI (CCRF-CEM leukemia) greater than 1000 µM. The GI50 (SK-OV-3 ovarian) was 992 µM, the TGI (SK-OV-3 ovarian) was greater than 1000 µM and the GI50 (T-47D breast) was 978 µM. The TGI (T-47D breast) was greater than 1000 µM, the GI50 (MCF7 breast) was greater than 1000 µM and the TGI (MCF7 breast) was greater than 1000 µM. For the same molecule, the GI50 (RXF 393 renal) was greater than 1000 µM, the TGI (RXF 393 renal) was greater than 1000 µM and the GI50 (NCI-H522 lung) was greater than 1000 µM. The TGI (NCI-H522 lung) was greater than 1000 µM, the GI50 (SNB-75 CNS) was 405 µM and the TGI (SNB-75 CNS) was greater than 1000 µM. It also gave a GI50 (SF-268 CNS) greater than 1000 µM and a TGI (SF-268 CNS) greater than 1000 µM.

In the case of `COC(=O)N[C@H](C(=O)O)C(C)O[Si](C)(C)C(C)(C)C` (stereo not given in full), the TGI (LOX IMVI melanoma) is reported as greater than 100 µM, the TGI (NCI-H460 lung) is reported as greater than 100 µM and the TGI (HT29 colon) is reported as greater than 100 µM. The TGI (NCI/ADR-RES ovarian) was greater than 100 µM, the TGI (UACC-257 melanoma) was greater than 100 µM and the TGI (SF-539 CNS) was greater than 100 µM. It also gave a TGI (COLO 205 colon) greater than 100 µM, a TGI (SK-MEL-28 melanoma) greater than 100 µM and a TGI (BT-549 breast) greater than 100 µM. For the same molecule, the TGI (NCI-H23 lung) was greater than 100 µM, the TGI (HOP-62 NSCLC) was greater than 100 µM and the TGI (A498 renal) was greater than 100 µM. It also gave a TGI (HS 578T breast) greater than 100 µM, a TGI (UACC-62 melanoma) greater than 100 µM and a TGI (ACHN renal) greater than 100 µM. The TGI (PC-3 prostate) was greater than 100 µM, the TGI (SW-620 colon) was greater than 100 µM and the TGI (UO-31 renal) was greater than 100 µM. It also gave a TGI (NCI-H226 lung) greater than 100 µM, a TGI (IGROV1 ovarian) greater than 100 µM and a TGI (U251 CNS) greater than 100 µM. It also gave a TGI (A549 NSCLC) greater than 100 µM, a TGI (786-0 renal) greater than 100 µM and a TGI (SK-MEL-5 melanoma) greater than 100 µM. It also gave a TGI (SR leukemia) greater than 100 µM, a TGI (MOLT-4 leukemia) greater than 100 µM and a TGI (MDA-MB-231 breast) greater than 100 µM. For the same molecule, the TGI (KM12 colon) was greater than 100 µM, the TGI (HCC-2998 colon) was greater than 100 µM and the TGI (OVCAR-3 ovarian) was greater than 100 µM. For the same molecule, the TGI (HL-60(TB) leukemia) was greater than 100 µM, the TGI (HCT-15 colon) was greater than 100 µM and the TGI (MDA-MB-435) was greater than 100 µM. For the same molecule, the TGI (TK-10 renal) was greater than 100 µM, the TGI (DU-145 prostate) was greater than 100 µM and the TGI (K-562 leukemia) was greater than 100 µM. For the same molecule, the TGI (EKVX NSCLC) was greater than 100 µM, the TGI (MALME-3M melanoma) was greater than 100 µM and the TGI (SNB-19 CNS) was greater than 100 µM. For the same molecule, the TGI (SF-295 CNS) was greater than 100 µM, the TGI (OVCAR-8 ovarian) was greater than 100 µM and the TGI (OVCAR-5 ovarian) was greater than 100 µM. For the same molecule, the TGI (OVCAR-4 ovarian) was greater than 100 µM, the TGI (HCT-116 colon) was greater than 100 µM and the TGI (SN12C renal) was greater than 100 µM. The TGI (RPMI-8226 leukemia) was greater than 100 µM, the TGI (CCRF-CEM leukemia) was greater than 100 µM and the TGI (SK-OV-3 ovarian) was greater than 100 µM. It also gave a TGI (T-47D breast) greater than 100 µM, a TGI (MCF7 breast) greater than 100 µM and a TGI (RXF 393 renal) greater than 100 µM. For the same molecule, the TGI (NCI-H522 lung) was greater than 100 µM and the TGI (SF-268 CNS) was greater than 100 µM.
